Where a name gives a salt, the structure may show the parent alone.
What was measured:
human GPR119 (hGPR119) = target: T1, human GPR119 (hGPR119) (Homo sapiens, UniProt Q8TDV5); assay: cAMP accumulation assay, CHO-K1 cells stably expressing human GPR119; assay type: cell-based; conditions: cAMP HTRF, 60 minutes
T1 construct: expressed in transfected cells
T1 sequence (Q8TDV5 1-335): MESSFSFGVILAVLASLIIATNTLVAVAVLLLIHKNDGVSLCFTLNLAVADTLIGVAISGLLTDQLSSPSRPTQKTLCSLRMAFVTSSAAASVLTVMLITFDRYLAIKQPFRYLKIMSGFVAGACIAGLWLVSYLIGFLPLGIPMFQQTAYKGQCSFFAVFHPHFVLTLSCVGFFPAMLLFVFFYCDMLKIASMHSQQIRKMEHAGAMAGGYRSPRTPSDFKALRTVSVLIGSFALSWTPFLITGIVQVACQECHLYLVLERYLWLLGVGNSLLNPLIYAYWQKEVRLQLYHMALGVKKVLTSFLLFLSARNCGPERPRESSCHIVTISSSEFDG
Method: CHO-K1 cells stably expressing human GPR119 (hGPR119) were prepared by transfection of a GPR119-carrying plasmid using Lipofectamine 2000 (following manufacturer instructions). A stable cell line was established using the limiting dilution method with geneticine selection. Assay-ready frozen (ARF) cells were prepared and used throughout the study.
The assay was performed in a 384-well plate format using the cAMP Gs dynamic assay kit from Cisbio. ARF cells expressing hGPR119 were thawed, washed and then resuspended in cAMP stimulation buffer at a cell density of 1.1×10^6 cells/mL. Cells were plated at a density of ˜10,000 cells/well (9 μL/well). Dose response curves for the tested compounds were prepared in a cAMP stimulation buffer, containing 0.1% Tween 80 at 4 fold the final concentration. The compounds were then transferred to the cell plates using BRAVO (3 μL/well) and the plates were incubated for 60 minutes at 37° C./5% CO2. Detection buffer (10 μL, prepared as described in the cAMP Gs dynamic kit) were added to each well, and the plates were incubated at ambient temperature for 1 hr.
RT-FRET was measured using a ClarioSTAR plate reader, calculating the ratio between emissions at 665 nm and 620 nm (HTRF ratio). The HTRF ratio for positive (Max) and negative (Min) controls were used to normalize HTRF data and generate values for % activity. EC50 and Max activity values were determined using a standard 4-parameter fit.

male C57BL/6J mice [1] = assay: Glucose excursion during oral glucose tolerance test in mice; assay type: in vivo; conditions: for % Reduction in 2-h glucose AUC vs. vehicle: OGTT, AUC 0 to 120 min, B6, B1, A14 30 mg/kg, linagliptin 0.3 mg/kg, metformin 300 mg/kg, dosed 1 h before glucose
Method: The effects of GPR40 agonists of Formula (B) and a GPR119 agonist of Formula (A) alone and in combination on glucose excursion during an oral glucose tolerance test were assessed in mice. The effects of the combination of a compound of Formula (A) and compounds of Formula (B) with linagliptin (a DPP-4 inhibitor) or metformin were also assessed. Male C57BL/6J mice, approximately 10 weeks old, were acclimated to the facility and the oral dosing procedure. Mice were randomized into balanced treatment groups using body weight. Baseline glucose was assessed immediately before compound administration. […] Blood was assessed for glucose levels 20 min, 40 min, 60 min, and 120 min post D-(+)-glucose administration. The AUCs for blood glucose measures were calculated for each treatment from 0 to 120 min. Statistical analysis was performed on AUCs using one-way ANOVA versus vehicle, with Tukey's post-test.

male C57BL/6J mice [2] = assay: Gut hormone (GLP-1) secretion in mice, plasma GLP-1 after oral gavage; assay type: in vivo; conditions: 30 mg/kg of each compound
Method: To determine whether activating two receptors simultaneously results in increased effects on hormone release, representative GPR40 agonists of Formula (B) were tested in combination with a GPR119 agonist of Formula (A). GLP-1 was measured at 5 and 17 h post dose. For the dose titration study, male C57BL/6J mice were acclimated to the facility and the dosing procedure. Mice were weighed and then fasted for 4 h. The mice were administered vehicle, a GPR40 agonist of Formula (B) at 30 mg/kg, a GPR119 agonist of Formula (A) at 30 mg/kg, and the GPR40 agonist of Formula (B) at 0.3, 1, 3, 10, and 30 mg/kg doses in combination with the GPR119 agonist of Formula (A) at 30 mg/kg by oral gavage. Blood was collected at 5 h post-dose or 17 h post-dose, and plasma was assayed for GLP-1.

[3] = system: primary human ileal crypt cultures; assay: GLP-1 secretion in human ileal crypt cultures; assay type: cell-based; conditions: 30 μM
Method: The potential for the combination of a compound of Formula (A) and a compound of Formula (B) to induce gut hormone secretion from EECs was assessed using primary human ileal crypt cultures and compared to the effect of the individual agents.

[4] = system: diet-induced-obese (DIO) mice; assay: 14-day weight loss in DIO mice; assay type: in vivo; conditions: BID, 13 or 14 days
Method: The effects of a GPR40 Agonist of Formula (B) alone and in combination with a GPR119 Agonist of Formula (A) on body weight were assessed in diet-induced-obese (DIO) mice over 14 days.
Male C57BL/6J DIO mice, approximately 16 weeks old (Jackson Laboratories), were provided 60% high fat diet and water ad libitum. Animals were dosed BID (two times a day) with vehicle for an approximately 3-week until body weight had stabilized. At approximately 20 weeks of age, the mice were randomized into treatment groups (n=8/group) by body weight (range of 37 to 55 g) as well as food intake, and body weight change measured over a two-day baseline period. In order to maximize time on target throughout the day, compounds were administered BID, 8 h apart. Food intake and body weight were measured daily.

human GPR40 = target: T2, human GPR40 (Homo sapiens, UniProt O14842); assay: Inositol phosphate (IP1) accumulation assay, CHO-K1 cells expressing human GPR40; assay type: cell-based; conditions: CHO hFFAR1 cells, IP1 HTRF, 90 min
T2 construct: host or cells: CHO-K1
T2 sequence (O14842 whole entry): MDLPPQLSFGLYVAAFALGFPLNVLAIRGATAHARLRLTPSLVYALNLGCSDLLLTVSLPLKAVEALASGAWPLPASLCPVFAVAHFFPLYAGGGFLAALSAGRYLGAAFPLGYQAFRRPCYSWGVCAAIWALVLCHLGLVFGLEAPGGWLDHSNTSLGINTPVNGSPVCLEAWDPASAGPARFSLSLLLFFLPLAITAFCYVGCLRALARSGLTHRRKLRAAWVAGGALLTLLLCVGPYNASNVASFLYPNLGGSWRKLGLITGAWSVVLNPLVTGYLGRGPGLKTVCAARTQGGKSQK
Method: CHO-K1 cells expressing human GPR40 were purchased from DiscoverX (95-1005C2). HEK293 cells expressing mouse FFAR1 were prepared using a mouse FFAR1 carrying plasmid purchased from OriGene Technologies (MR222997). The cells were transfected using Lipofectamine 2000 using manufacturer instructions and stable cell line was established from a single cell using geneticine selection. Assay ready frozen (ARF) cells were prepared and used throughout the study.
The assay was performed in a 384-well plate format using IP1 assay kit from Cis-Bio. ARF cells expressing FFAR1 (mouse and human) were thawed, washed and then plated in the appropriate medium (F12 based medium for CHO hFFAR1 and DMEM based medium for HEK293 mFFAR1—both were supplemented with 10% FBS and penicillin/streptomycin). 20 μL of 3.5×10^5 cells/mL were plated on a Poly D-Lysine coated 384-well white plate. The cells were then incubated for 16 hr at 37° C./5% CO2. After 16 hr the medium was removed and 15 μL of stimulation buffer containing the test compounds was added to the cells. The plates were then incubated for 90 min at 37° C./5% CO2. […]
[…] was measured using ClarioSTAR plate reader, calculating the ratio between emissions at 665 nm and 620 nm (HTRF ratio). […] EC50 and Max activity values were determined using a standard 4-parameter fit.

SMILES	EC50 (human GPR119 (hGPR119)) [nM]	% Reduction in 2-h glucose AUC vs. vehicle (male C57BL/6J mice [1]) [%]	GLP-1 (fold increase) (male C57BL/6J mice [2]; 5 h post dose)	GLP-1 (fold increase) (male C57BL/6J mice [2]; 17 h post dose)	GLP-1 (fold increase) [3] [fold increase]	also measured
CCCc1cnc(N2CCC(CCCOc3cc(F)c(CC(=O)N4CC(C(=O)NCCC[N+](C)(C)C)C4)c(F)c3)CC2)nc1 [Compound A13, 3-[[1-[2-[2,6-difluoro-4-[3-[1-(5-propylpyrimidin-2-yl)-4-piperidyl]propoxy]phenyl]acetyl]azetidine-3-carbonyl|amino]propyl-trimethyl-ammonium formate]	100 to 1000	–	–	–	–	–
COc1ccc(CCCC(C)(C)C)c(N2CCC(COc3cccc([C@@H](CP(C)(=O)O)C4CC4)c3)CC2)c1 [Compound B6, ((S)-2-cyclopropyl-2-(3-((1-(2-(4,4-dimethylpentyl)-5-methoxyphenyl)piperidin-4-yl)methoxy)phenyl)ethyl)(methyl)phosphinic acid]	–	21	3.2	1.9	4.0	% Weight Loss vs Vehicle ([4]; Study 2, DIO mice): 5.2%
CN(C)C(=N)N=C(N)N [metformin, reference compound]	–	26	–	–	–	post-prandial glucose excursion (male C57BL/6J mice [1]; OGTT in mice): suppressed post-prandial glucose excursion
CC#CCn1c(N2CCC[C@@H](N)C2)nc2c1c(=O)n(Cc1nc(C)c3ccccc3n1)c(=O)n2C [linagliptin, reference compound]	–	17	–	–	–	–
COc1ccc(F)c([C@H]2CC[C@H](COc3cccc([C@H](C[P@](C)(=O)O)C4CC4)c3)CC2)c1 (single isomer, unassigned) [Compound B1]	–	14	1.9	1.4	5.5	EC50 (human GPR40): ≤ 50 nM; % Weight Loss vs Vehicle ([4]; Study 1, DIO mice): 3.1%
COCc1cnc(N2CCC(CCCOc3ccc(CC(=O)N4CC(CNCCNC(=O)NC(CO)(CO)CO)C4)c(F)c3)CC2)nc1 [Compound A51]	100 to 1000	–	–	–	–	–
CCc1cnc(N2CCC(CCCOc3ccc(CC(=O)N4CC(CNC[C@H](O)[C@H](O)[C@@H](O)[C@H](O)C(=O)O)C4)c(F)c3)CC2)nc1 [Compound A36, (2S,3R,4S,5S)-6-[[1-[2-[4-[3-[1-(5-ethylpyrimidin-2-yl)-4-piperidyl]propoxy]-2-fluoro-phenyl]acetyl]azetidin-3-yl]methylamino]-2,3,4,5-tetrahydroxy-hexanoic acid]	≤ 100	–	–	–	–	–
O=C(NCCCCS(=O)(=O)O)C1CN(C(=O)Cc2ccc(OCCCC3CCN(c4ncc(Cl)cn4)CC3)cc2F)C1 [Compound A65, 4-[[1-[2-[4-[3-[1-(5-chloropyrimidin-2-yl)-4-piperidyl]propoxy]-2-fluoro-phenyl]acetyl]azetidine-3-carbonyl]amino]butane-1-sulfonic acid]	100 to 1000	–	–	–	–	–
COc1ccc(F)c([C@H]2CC[C@H](COc3cccc([C@@H](C[P@@](C)(=O)O)C4CC4)c3)CC2)c1 (single isomer, unassigned) [Compound B2]	–	–	–	–	–	EC50 (human GPR40): 50 to 250 nM
O=C(Cc1ccc(OCCCC2CCN(c3ncc(Cl)cn3)CC2)cc1F)N1CC(CNC[C@H](O)[C@@H](O)[C@H](O)[C@H](O)CO)C1 [Compound A14, 2-[4-[3-[1-(5-chloropyrimidin-2-yl)-4-piperidyl]propoxy]-2-fluoro-phenyl]-1-[3-[[[(2S,3R,4R,5R)-2,3,4,5,6-pentahydroxyhexyl]amino]methyl]azetidin-1-yl]ethanone]	–	14	1.6	1.3	1.9	% Weight Loss vs Vehicle ([4]; Study 1, DIO mice): 2.5%

From US20240115587A1, “COMBINATION THERAPIES” (Kallyope, Inc., priority 2022, published 2024)
